Paper PMC6274474, “Synthesis and Cytotoxic Activity on Human Cancer Cells of Novel Isoquinolinequinone–Amino Acid Derivatives” (Molecules, 2016)
Where two headings read alike, the source gives them in different places.

How the values were obtained:
[1] = tested on: AGS, SK-MES-1 and J82 human cancer cell lines; assay: MTT cytotoxicity, 72 h, panel summary (mean/range/selective index) over AGS, SK-MES-1, J82 vs MRC-5; assay type: cell-based; conditions: for MSI: Mean Selective Index = IC50 values for fibroblasts/IC50 values tumor cells: MRC-5 vs AGS; for MSI: Mean Selective Index = IC50 values for fibroblasts/IC50 values tumor cells / IC50: SK-MES-1, J82; for IC50: Homo sapiens
Protocol: (§1) The series of isoquinolinequinone amino ester conjugates (Table 1) and the bromine derivatives (Table 2) were evaluated for their in vitro cytotoxic activities against normal human lung fibroblast (MRC-5) and three human cancer cells lines: human gastric adenocarcinoma (AGS), human lung cancer (SK-MES-1), and human bladder carcinoma (J82), in 72 h drug exposure assays. The cytotoxic activities of the new compounds were measured using conventional microculture tetrazolium reduction assays. The cytotoxic activities of each of the quinones are expressed in terms of IC50.
(§2) Cytotoxicity assay (Table 3 and Table 4). […] MRC-5, SK-MES-1, and J82 cells were grown in Eagle’s minimal essential medium (EMEM) containing 2 mM L-glutamine, 1 mM sodium pyruvate and 1.5 g/L sodium hydrogen carbonate. AGS cells were grown in Ham F-12 supplemented with 2 mM L-glutamine and 1.5 g/L sodium hydrogen carbonate. Finally, HL-60 cells were grown in RPMI medium. […] For the cytotoxicity experiments, cells were seeded into 96-well plates at a density of 50,000 cells/mL. After reaching confluence, cells were incubated for three days with compounds at varied concentrations ranging from 0 up to 100 μM while untreated cells (medium containing 1% DMSO) were used as controls. Cytotoxicity was assessed using the MTT (3-(4,5-dimethylthiazol-2-yl)-2,5-diphenyltetrazolium bromide) reduction assay. MTT was used at 1 mg/mL and the blue formazan crystals, formed during MTT reduction, were dissolved adding 100 μL of ethanol (acidified with HCl). The absorbance was measured at 550 nm using a Universal Microplate Reader (ELX 800, Bio-Tek Instruments Inc., Winooski, VT, USA). Values were the means of six replicates for each concentration and transformed to percentage of controls. The IC50 value was graphically obtained from the dose–response curves by adjusting them to a sigmoidal model (a + (b − a)/1 + 10(x − c)), where c = log IC50.

[2] = tested on: AGS human gastric adenocarcinoma cells; assay: MTT cytotoxicity assay, 72 h, gastric adenocarcinoma cells; assay type: cell-based; conditions: 72 h exposure, six determinations, read-out: IC50 ± SEM AGS
Protocol: as §1, §2

[3] = tested on: MRC-5 normal human lung fibroblasts; assay: MTT cytotoxicity assay, 72 h, normal human lung fibroblasts; assay type: cell-based; conditions: for IC50: MRC5, normal human lung fibroblasts, MTT, 72 h exposure, six determinations, read-out: IC50 ± SEM MRC-5
Protocol: as §1, §2

[4] = tested on: SK-MES-1 human lung cancer cells; assay: MTT cytotoxicity assay, 72 h, lung cancer cells; assay type: cell-based; conditions: 72 h exposure, six determinations, read-out: IC50 ± SEM SK-MES-1
Protocol: as §1, §2

[5] = tested on: J82 human bladder carcinoma cells; assay: MTT cytotoxicity assay, 72 h, bladder carcinoma cells; assay type: cell-based; conditions: 72 h exposure, six determinations, read-out: IC50 ± SEM J82
Protocol: as §1, §2

[6] = tested on: MCF-7 (breast) human cancer cells; assay: MTT cytotoxicity assay, 48 h, breast cancer cells; assay type: cell-based; conditions: MCF7, three experiments, read-out: IC50 ± SEM MCF-7
Protocol: (§3) Cytotoxicity assay (Table 5). […] The cytotoxic effect of compounds on cell lines was assessed using the MTT assay as reported previously. Briefly, 10,000 cells/well were plated for 24 h in 96-well plates and, after reaching confluence, the cells were incubated for 48 h with DMSO or in the presence of compounds. Cells were washed twice with warm phosphate-buffered saline (PBS) and further incubated for 2 h with MTT (0.5 mg/mL). The blue formazan crystals were then solubilized by adding 100 μL DMSO/well and optical density of colored solutions was read at 550 nm. Results are expressed as % of MTT reduction compared to untreated control conditions. The calculation of IC50 values was performed by using GraphPad Prism software (San Diego, CA, USA).

[7] = tested on: AG 1523 normal human fibroblasts; assay: MTT cytotoxicity assay, 48 h, normal human fibroblasts; assay type: cell-based; conditions: AG1523, healthy non-tumor fibroblasts, three experiments, read-out: IC50 ± SEM AG 1523
Protocol: as §3

[8] = tested on: T24 (bladder) human cancer cells; assay: MTT cytotoxicity assay, 48 h, bladder cancer cells; assay type: cell-based; conditions: three experiments, read-out: IC50 ± SEM T24
Protocol: as §3

[9] = tested on: DU-145 (prostate) human cancer cells; assay: MTT cytotoxicity assay, 48 h, prostate cancer cells; assay type: cell-based; conditions: three experiments, read-out: IC50 ± SEM DU-145
Protocol: as §3

[10] = tested on: T24, DU-145 and MCF-7 human cancer cell lines; assay: MTT cytotoxicity, 48 h, panel summary (range/selective index) over T24, DU-145, MCF-7 vs AG 1523; assay type: cell-based
Protocol: as §3

[11] = SK-MES-1, 72 h, range over AGS, 72 h MTT, read-out: IC50 values range over the cancer cell lines
[12] = SK-MES-1, mean over AGS, read-out: mean IC50 on cancer cells

Structure (SMILES) | MSI: Mean Selective Index = IC50 values for fibroblasts/IC50 values tumor cells [1] | IC50 [2] [µM] | melting point [°C] | IC50 [3] [µM] | IC50 [4] [µM] | IC50 [5] [µM] | IC50 [1, 11] [µM] | IC50 [1, 12] [µM] | IC50 [6] [µM] | IC50 [7] [µM] | MSI on lung and bladder cancer cells ([1]; MRC-5 vs SK-MES-1 and J82 only) | SI (normal fibroblasts) ([3]; as printed for normal fibroblasts) | IC50 [8] [µM] | IC50 [9] [µM] | SI ([10]; AG 1523 fibroblasts vs T24, DU-145, MCF-7) | IC50 ([10]; Homo sapiens, range over T24, DU-145, MCF-7, 48 h MTT, read-out: IC50 range in cancer cells) [µM]
COC(=O)c1c(C)ncc2c1C(=O)C(Br)=C(NC(Cc1ccccc1)C(=O)OC)C2=O (stereo not drawn) [Compound 15] | 1.52 | 2.08 ± 0.13 | 125.2 to 127.5 | 4.48 ± 0.27 | 2.13 ± 0.12 | 4.61 ± 0.36 |  |  |  |  |  |  |  |  |  | 
COC(=O)c1c(C)ncc2c1C(=O)C(Br)=C(NC(C)C(=O)OC)C2=O (stereo not drawn) [Compound 12, Methyl 6-bromo-7-(1-methoxy-1-oxopropan-2-ylamino)-3-methyl-5,8-dioxo-5,8-dihydroisoquinoline-4-carboxylate] | 1.10 | 2.07 ± 0.11 | 120.5 to 122 | 2.86 ± 0.17 | 1.96 ± 0.11 | 3.76 ± 0.26 |  |  |  |  |  |  |  |  |  | 
COC(=O)c1c(C)ncc2c1C(=O)C=C(N[C@H](C(=O)OC)C(C)C)C2=O [Compound 3a, Methyl 6- and 7-(1-methoxy-3-methyl-1-oxobutan-2-ylamino)-3-methyl-5,8-dioxo-5,8-dihydro-isoquinoline-4-carboxylate] | 1.10 | 1.94 ± 0.08 |  | 4.94 ± 0.25 | 4.62 ± 0.28 | 7.49 ± 0.44 |  |  |  |  |  |  |  |  |  | 
COC(=O)c1c(C)ncc2c1C(=O)C(N[C@H](Cc1ccccc1)C(=O)OC)=CC2=O [Compound 10b, Methyl 6- and 7-(1-methoxy-1-oxo-3-phenylpropan-2-ylamino)-3-methyl-5,8-dioxo-5,8-dihydroisoquinoline-4-carboxylate] | 0.82 | 1.98 ± 0.11 | 71.5 to 73 | 1.78 ± 0.12 | 1.2 ± 0.05 | 3.03 ± 0.17 | 0.58 to 3.18 |  |  |  |  |  |  |  |  | 
COC(=O)c1c(C)ncc2c1C(=O)C=C(N[C@@H](C)C(=O)OC)C2=O [Compound 2a, Methyl 6- and 7-(1-methoxy-1-oxopropan-2-ylamino)-3-methyl-5,8-dioxo-5,8-dihydroisoquinoline-4-carboxylate] |  | 2.25 ± 0.15 |  | 9.04 ± 0.69 | 2.65 ± 0.19 | 6.25 ± 0.44 |  | < 4 |  |  |  |  |  |  |  | 
COC(=O)c1c(C)ncc2c1C(=O)C=C(N[C@@H](Cc1ccccc1)C(=O)OC)C2=O [Compound 6a, Methyl 6- and 7-(1-methoxy-1-oxo-3-phenylpropan-2-ylamino)-3-methyl-5,8-dioxo-5,8-dihydroisoquinoline-4-carboxylate] |  | 1.85 ± 0.13 |  | 6.73 ± 0.34 | 2.5 ± 0.15 | 4.68 ± 0.23 |  | < 4 |  |  |  |  |  |  |  | 
COC(=O)c1c(C)ncc2c1C(=O)C(Br)=C(NC(C(=O)OC)C(C)C)C2=O (stereo not drawn) [Compound 13a] | 1.15 | 1.92 ± 0.13 | 105.2 to 107 | 2.98 ± 0.21 | 2.28 ± 0.09 | 4.01 ± 0.19 |  |  |  |  |  |  |  |  |  | 
COC(=O)c1c(C)ncc2c1C(=O)C=C(N[C@@H](CC(C)C)C(=O)OC)C2=O [Compound 4a] | 1.13 | 2.97 ± 0.15 |  | 5.7 ± 0.29 | 4.56 ± 0.31 | 7.65 ± 0.51 |  |  |  |  |  |  |  |  |  | 
COC(=O)c1c(C)ncc2c1C(=O)C(NC(C(=O)OC)C(C)C)=C(Br)C2=O (stereo not drawn) [Compound 13b] | 0.41 | 2.7 ± 0.14 | 105 to 106.6 | 2.11 ± 0.11 | 3.9 ± 0.31 | 8.76 ± 0.61 |  |  |  |  |  |  |  |  |  | 
COC(=O)c1c(C)ncc2c1C(=O)C(N[C@@H](Cc1ccc(O)cc1)C(=O)OC)=CC2=O [Compound 7b] | 1.00 | 1.53 ± 0.06 | 76.5 to 78.5 | 3.74 ± 0.26 | 2.57 ± 0.12 | 7.11 ± 0.55 |  |  |  |  |  |  |  |  |  | 
COC(=O)c1c(C)ncc2c1C(=O)C=C(N[C@@H](Cc1c[nH]c3ccccc13)C(=O)OC)C2=O [Compound 8a, Methyl 6- and 7-(3-(1H-indol-3-yl)-1-methoxy-1-oxopropan-2-ylamino)-3-methyl-5,8-dioxo-5,8-dihydroisoquinoline-4-carboxylate] | 1.45 | 2.54 ± 0.18 |  | 6.62 ± 0.46 | 3.63 ± 0.18 | 7.56 ± 0.52 |  |  |  |  |  |  |  |  |  | 
COC(=O)c1c(C)ncc2c1C(=O)C(Br)=C(NC(CC(C)C)C(=O)OC)C2=O (stereo not drawn) [Compound 14] |  | > 100 | 104.3 to 106.2 | > 100 | 0.92 ± 0.04 | 2.21 ± 0.17 |  |  | 0.5 ± 0.05 | 1.57 ± 0.2 | > 45 | > 100 | 0.67 ± 0.06 | 0.64 ± 0.06 | 2.62 | 0.5 to 0.67
COC(=O)c1c(C)ncc2c1C(=O)C=C(N[C@@H](CCSC)C(=O)OC)C2=O [Compound 5a] | 1.42 | 2.54 ± 0.21 |  | 5.22 ± 0.31 | 2.93 ± 0.11 | 6 ± 0.32 |  |  |  |  |  |  |  |  |  | 
COC(=O)c1c(C)ncc2c1C(=O)C(N[C@@H](CC(C)C)C(=O)OC)=CC2=O [Compound 4b, Methyl 6- and 7-(1-methoxy-4-methyl-1-oxopentan-2-ylamino)-3-methyl-5,8-dioxo-5,8-dihydroisoquinoline-4-carboxylate] | 0.86 | 1.59 ± 0.07 | 58.5 to 60.5 | 1.77 ± 0.14 | 2.22 ± 0.12 | 2.35 ± 0.09 | 0.58 to 3.18 |  |  |  |  |  |  |  |  | 
